How the values were obtained:
Assay type in all cases: in vivo
[1] = test system: ground pearl (Margarodes spp); experiment: Field trial in kikuyu turf, control of ground pearl, Sydney (Example 2); details: for NDVI, Pre-spray: Pre-spray (baseline), kikuyu turf, Greenseeker; for Ground pearls/plot, Adults, Pre-spray / Ground pearls/plot, Eggs, Pre-spray / Ground pearls/plot, Adults, 56 DAA3 / Ground pearls/plot, Eggs, 56 DAA3 / NDVI, 56 DAA3: sc; for Ground pearls/plot, Adults, 56 DAA3 / Ground pearls/plot, Eggs, 56 DAA3: 200 g/ha; for Ground pearls/plot, Adults, 56 DAA3 / Ground pearls/plot, Eggs, 56 DAA3 / NDVI, 56 DAA3: 1344 h
Protocol: A field trial was conducted in kikuyu turf, to evaluate fenpyroximate for control of ground pearl (Margarodes spp). The trial was located at Sydney University, New South Wales (−33.888, 151.188), in an area with a known infestation of ground pearl.
All treatments were applied using a hand boom fitted with XR11004 nozzles, in a spray volume of 430 L/ha.
The ground pearl density by species was assessed by sampling 20 cores per plot and recording the number of eggs and adults, and Normalized Difference Vegetation Index (NDVI) was assessed 56 days after the third application using a Greenseeker.
(§1) All data was statistically analyzed using analysis of variance and Fisher's protected least significant different test (Fishers LSD). The level of significance for all tests was P<0.05.

[2] = test system: ground pearl (Margarodes spp); experiment: Field trial in kikuyu turf, control of ground pearl, Robina (Example 6); details: sc
[3] = test system: ground pearl (Margarodes spp); experiment: as above; details: for Ground pearls/plot, Adults, Pre-spray / Ground pearls/plot, Eggs, Pre-spray: Pre-spray (baseline), 20 cores per plot; for density of ground pearl eggs and adults (in words) / turf vigor (in words): versus untreated, P<0.05
Protocol: A field trial was conducted in kikuyu turf, to evaluate fenpyroximate for control of ground pearl (Margarodes spp). The trial was located at Robina, Queensland (−28.069442, 153.401817), in an area with a known infestation of ground pearl.
All treatments were applied using a hand boom fitted with XC08 nozzles, in a spray volume of 443 L/ha.
The ground pearl density by species was assessed prior to the first application and again 21 days after the third application by sampling 20 cores per plot and recording the number of eggs and adults. Turf vigor was assessed on a 0 to 10 rating scale (0=dead; 10=best quality/color) prior to the first application and 42 days after the third application.
as §1

[4] = versus untreated, P<0.05, with PE 6200

## CN1COCN(Cc2cnc(Cl)s2)/C1=N\[N+](=O)[O-] [Meridian, Thiamethoxam]
[1]
  NDVI, Pre-spray: 7.5
  Ground pearls/plot, Adults, Pre-spray: 15.5 a ground pearls/plot
  Ground pearls/plot, Eggs, Pre-spray: 7.8 a ground pearls/plot
  Ground pearls/plot, Adults, 56 DAA3: 9.8 a ground pearls/plot
  Ground pearls/plot, Eggs, 56 DAA3: 8.5 abc ground pearls/plot
  NDVI, 56 DAA3: 7.5
[1]; [4]
  density of ground pearl adults (in words): significantly reduced
  density of ground pearl eggs (in words): significantly reduced
[2]
  Turf vigor (0-10), 56 DAA3: 6.0 a
[3]
  Turf vigor (0-10), Pre-spray: 5.1
  Ground pearls/plot, Adults, Pre-spray: 6.0 ground pearls/plot
  Ground pearls/plot, Eggs, Pre-spray: 3.0 ground pearls/plot
  density of ground pearl eggs and adults (in words): significantly reduced
  turf vigor (in words): significantly improved

## O=[N+]([O-])NC1=NCCN1Cc1ccc(Cl)nc1 [Kohinor 350 SC, Imidacloprid]
[1]
  NDVI, Pre-spray: 8.25
  Ground pearls/plot, Adults, Pre-spray: 10.5 a ground pearls/plot
  Ground pearls/plot, Eggs, Pre-spray: 9.0 a ground pearls/plot
  Ground pearls/plot, Adults, 56 DAA3: 13.8 a ground pearls/plot
  Ground pearls/plot, Eggs, 56 DAA3: 12.5 cd ground pearls/plot
  NDVI, 56 DAA3: 7.8
[1]; [4]
  density of ground pearl eggs (in words): did not reduce
[2]
  Turf vigor (0-10), 56 DAA3: 5.9 a
[3]
  Turf vigor (0-10), Pre-spray: 5.1
  Ground pearls/plot, Adults, Pre-spray: 5.7 ground pearls/plot
  Ground pearls/plot, Eggs, Pre-spray: 2.0 ground pearls/plot
  density of ground pearl eggs and adults (in words): significantly reduced
  turf vigor (in words): significantly improved
